Legend:
Format in all cases: functional
[1] = test system: Trypanosoma cruzi; experiment: Antitrypanosomal activity against Trypanosoma cruzi Tulahuen 2 assessed as inhibition of growth of epimastigotes at 25 uM after 5 days by MTT assay relative to control; conditions: Tulahuen 2, 120 h, read-out: GI
[2] = test system: Trypanosoma cruzi; experiment: Antitrypanosomal activity against Trypanosoma cruzi Tulahuen 2 assessed as inhibition of epimastigotes growth after 5 days by MTT assay relative to control; conditions: Tulahuen 2, 120 h, read-out: ID50 (the source's name)
[3] = test system: Leishmania pifanoi; experiment: Antileishmanial activity against Leishmania pifanoi MHOM/VE/57/LV135 assessed as parasite viability after 5 days by MTT assay; conditions: 120 h, read-out: ID50 (the source's name)
[4] = test system: Trypanosoma cruzi; experiment: Antitrypanosomal activity against Trypanosoma cruzi CL Brener assessed as parasite viability after 5 days by MTT assay; conditions: 120 h, read-out: ID50 (the source's name)
[5] = test system: Leishmania braziliensis; experiment: Antileishmanial activity against Leishmania braziliensis MHOM/BR/00/LTB300 assessed as parasite viability after 5 days by MTT assay; conditions: 120 h, read-out: ID50 (the source's name)
[6] = test system: Trypanosoma cruzi; experiment: Antitrypanosomal activity against Trypanosoma cruzi Y assessed as parasite viability after 5 days by MTT assay; conditions: 120 h, read-out: ID50 (the source's name)

| SMILES | inhibition of growth at 25 µM [1] [%] | other results |
| --- | --- | --- |
| O=C(O)c1ccc(OCC(CO[N+](=O)[O-])O[N+](=O)[O-])cc1 (stereo not given) | 0 | – |
| Cc1no[n+]([O-])c1-c1nc(S)n[nH]1 | 40 | – |
| NC(=O)c1c(CO)no[n+]1[O-] | 0 | – |
| NC(=O)c1c(CN2CCC(Cc3c[nH]cn3)CC2)no[n+]1[O-] | 6 | – |
| O=S(=O)(c1ccccc1)c1no[n+]([O-])c1S(=O)(=O)c1ccccc1 | – | IC50 [2]: 3.5 µM |
| Cc1c(C(=O)NNC(N)=S)no[n+]1[O-] | 9 | – |
| CCOc1no[n+]([O-])c1-c1ccccc1 | – | IC50 [2]: 7.5 µM |
| NC(=O)c1c(-c2ccccc2)no[n+]1[O-] | 35 | – |
| c1ccc(-c2nonc2SC2CCNCC2)cc1 | 34 | – |
| Cc1ncc([N+](=O)[O-])n1CCNCc1nonc1C(N)=O | 14 | – |
| Cc1ncc([N+](=O)[O-])n1CCNCc1nonc1C#N | 23 | – |
| Cc1nonc1CNC(c1c[nH]cn1)C1CCNCC1 (stereo not given) | 2 | – |
| Cc1no[n+]([O-])c1/C=N/O | 17 | – |
| CS(=O)(=O)CCOc1nonc1-c1ccccc1 | 4 | – |
| Cc1c(CN(C)C)no[n+]1[O-] | 0 | – |
| CN(C)C(=O)CS(=O)(=O)c1c(-c2ccccc2)no[n+]1[O-] | – | IC50 [2]: 7.5 µM |
| COc1ccccc1NCCS(=O)(=O)c1nonc1-c1ccccc1 | – | IC50 [3]: 15.8 µM; IC50 [4]: > 50 µM; IC50 [5]: 11.6 µM; IC50 [6]: 50 µM; IC50 [2]: 10 µM |
| Nc1nonc1-c1ccccc1 | 45 | – |
| Cc1c(-c2ccc(C(=O)O)cc2)no[n+]1[O-] | 34 | – |
| CN(C)Cc1no[n+]([O-])c1C(N)=O | 11 | – |
| Cc1nonc1-c1nc2ccccc2[nH]1 | 20 | – |
| Cc1nonc1CN(C)C | 0 | – |

| SMILES | inhibition of growth at 25 µM [1] [%] | other results |
| --- | --- | --- |
| NC(=O)c1no[n+]([O-])c1-c1ccccc1 | 10 | – |
| CCOc1nonc1S(=O)(=O)c1ccccc1 | 25 | – |
| N#Cc1nonc1-c1ccccc1 | 2 | – |
| NC(=O)CS(=O)(=O)c1nonc1-c1ccccc1 | 27 | IC50 [3]: > 50 µM; IC50 [4]: > 50 µM; IC50 [5]: > 50 µM; IC50 [6]: > 50 µM |
| O=Cc1ccc(OCC(CO[N+](=O)[O-])O[N+](=O)[O-])cc1 (stereo not given) | 1 | – |
| NC(=O)c1nonc1CN1CCC(Cc2c[nH]cn2)CC1 | 0 | – |
| Cc1no[n+]([O-])c1C(=O)NNC(N)=S | 10 | – |
| Cc1ncc([N+](=O)[O-])n1CCNCc1no[n+]([O-])c1C#N | 5 | – |
| CCOc1nonc1-c1ccccc1 | 35 | – |
| CN(C)CCCOc1nonc1-c1c[nH]cn1 | 3 | – |
| CC1CS(=O)(=O)CCN1/N=C/c1ccc([N+](=O)[O-])o1 (stereo not given) [NIFURTIMOX] | – | IC50 [4]: 4.9 µM; IC50 [6]: 9.7 µM; IC50 [2]: 7.7 µM |
| Cc1c(CNC(c2c[nH]cn2)C2CCNCC2)no[n+]1[O-] (stereo not given) | 0 | – |
| Cc1ncc([N+](=O)[O-])n1CCOc1no[n+]([O-])c1S(=O)(=O)c1ccccc1 | – | IC50 [2]: 5 µM |
| Cc1nonc1C(=O)NNC(N)=S | 16 | – |
| Nc1c(-c2ccccc2)no[n+]1[O-] | 39 | – |
| Cc1nonc1-c1nc2ccccc2o1 | 15 | – |
| [O-][n+]1onc(/C=N/O)c1CO | 3 | – |
| C=CS(=O)(=O)c1nonc1-c1ccccc1 | – | IC50 [3]: 20.4 µM; IC50 [4]: 22.2 µM; IC50 [5]: 8 µM; IC50 [6]: 23.5 µM; IC50 [2]: 6.5 µM |
| NC(=O)CSc1nonc1-c1ccccc1 | 17 | IC50 [3]: > 50 µM; IC50 [4]: > 50 µM; IC50 [5]: > 50 µM; IC50 [6]: > 50 µM |
| NC(=O)CS(=O)(=O)c1no[n+]([O-])c1-c1ccccc1 | – | IC50 [3]: > 50 µM; IC50 [4]: > 50 µM; IC50 [5]: > 50 µM; IC50 [6]: 48 µM; IC50 [2]: 25 µM |
| NC(=O)CSc1c(-c2ccccc2)no[n+]1[O-] | 19 | IC50 [3]: > 50 µM; IC50 [4]: > 50 µM; IC50 [5]: > 50 µM; IC50 [6]: > 50 µM |
| O=C(O)CSc1nonc1-c1ccccc1 | 31 | – |

| SMILES | inhibition of growth at 25 µM [1] [%] | other results |
| --- | --- | --- |
| [O-][n+]1onc(CO)c1/C=N/O | 2 | – |
| CCOC(=O)COc1no[n+]([O-])c1S(=O)(=O)c1ccccc1 | – | IC50 [2]: 7.5 µM |
| CN(C)Cc1nonc1C#N | 13 | – |
| Cc1nonc1CN1CCC(Cc2c[nH]cn2)CC1 | 21 | – |
| Cc1nonc1-c1nc2ccccc2s1 | 22 | – |
| Cc1ncc([N+](=O)[O-])n1CCOc1nonc1-c1ccccc1 | – | IC50 [2]: 5 µM |
| CCOCC.NC(=O)c1nonc1CNC(c1c[nH]cn1)C1CCNCC1 (stereo not given) | 0 | – |
| CCOc1c(-c2ccccc2)no[n+]1[O-] | – | IC50 [2]: 18 µM |
| N#Cc1c(CN2CCC(Cc3c[nH]cn3)CC2)no[n+]1[O-] | 9 | – |
| NC(=O)c1c(CN2CCCCC2)no[n+]1[O-] | 4 | – |
| Nc1no[n+]([O-])c1C(=O)N1CCCCC1 | 17 | – |
| O=C(O)CSc1c(S(=O)(=O)c2ccccc2)no[n+]1[O-] | 0 | – |
| Cc1no[n+]([O-])c1-c1ccc(C(=O)O)cc1 | 38 | – |
| N#Cc1no[n+]([O-])c1-c1ccccc1 | 15 | – |
| CCOCCS(=O)(=O)c1nonc1-c1ccccc1 | – | IC50 [3]: > 50 µM; IC50 [4]: > 50 µM; IC50 [5]: > 50 µM; IC50 [6]: > 50 µM; IC50 [2]: 7.5 µM |
| Cc1c(CN2CCC(Cc3c[nH]cn3)CC2)no[n+]1[O-] | 4 | – |
| O=C(O)CSc1no[n+]([O-])c1-c1ccccc1 | 4 | – |
| O=C(Cn1ccnc1[N+](=O)[O-])NCc1ccccc1 [BENZNIDAZOLE] | – | IC50 [3]: 3.8 µM; IC50 [2]: 4.5 µM |
| O=S(=O)(CCO)c1no[n+]([O-])c1-c1ccccc1 | – | IC50 [2]: 25 µM |
| NC(=O)c1nonc1CN1CCCCC1 | 3 | – |
| NC(=O)c1nonc1CO | 0 | – |
| N#Cc1nonc1CN1CCC(Cc2c[nH]cn2)CC1 | 0 | – |

| SMILES | inhibition of growth at 25 µM [1] [%] | other results |
| --- | --- | --- |
| COC(=O)CSc1c(S(=O)(=O)c2ccccc2)no[n+]1[O-] | 22 | – |
| O=Cc1ccc(CC(CO[N+](=O)[O-])O[N+](=O)[O-])cc1 (stereo not given) | 0 | – |
| Cc1ncc([N+](=O)[O-])n1CCOc1no[n+]([O-])c1-c1ccccc1 | – | IC50 [2]: 4 µM |
| CCOc1no[n+]([O-])c1S(=O)(=O)c1ccccc1 | – | IC50 [2]: 7.5 µM |
| CCCCCCNC(=O)N/N=C/c1c(-c2ccccc2)no[n+]1[O-] | – | IC50 [2]: 25 µM |
| COC(=O)CSc1no[n+]([O-])c1-c1ccccc1 | 15 | – |
| Cc1ncc([N+](=O)[O-])n1CCNCc1no[n+]([O-])c1C(N)=O | 10 | – |
| O=S(=O)(CCO)c1nonc1-c1ccccc1 | 17 | – |
| Cc1nonc1CNCCn1c([N+](=O)[O-])cnc1C | 18 | – |
| CN(C)Cc1nonc1C(N)=O | 0 | – |
| Cc1ncc([N+](=O)[O-])n1CCNCc1no[n+]([O-])c1C | 17 | – |
| CN(C)CCCOc1no[n+]([O-])c1S(=O)(=O)c1ccccc1 | – | IC50 [2]: 3 µM |
| NC(=O)c1c(CNC(c2c[nH]cn2)C2CCNCC2)no[n+]1[O-] (stereo not given) | 17 | – |
| Cc1ncc([N+](=O)[O-])n1CCOCC[N+](=O)[O-] | 13 | – |
| CN(C)CCCOc1no[n+]([O-])c1-c1ccccc1 | 0 | – |
| CN(C)CCCOc1nonc1S(=O)(=O)c1ccccc1 | 15 | – |
| O=S(=O)(c1ccccc1)c1nonc1S(=O)(=O)c1ccccc1 | – | IC50 [2]: 2 µM |
| COc1cc(CN2CCN(c3ccc(CC(CO[N+](=O)[O-])O[N+](=O)[O-])cc3)CC2)cc(OC)c1OC (stereo not given) | 3 | – |
| O=S(=O)(CCO)c1c(-c2ccccc2)no[n+]1[O-] | – | IC50 [2]: 7.5 µM |
| CCSCCS(=O)(=O)c1nonc1-c1ccccc1 | 25 | IC50 [3]: > 50 µM; IC50 [4]: > 50 µM; IC50 [5]: > 50 µM; IC50 [6]: 28.7 µM |
| O=C(O)c1ccc(CC(CO[N+](=O)[O-])O[N+](=O)[O-])cc1 (stereo not given) | 0 | – |
| O=S(=O)(c1ccccc1)c1c(OCCCO)no[n+]1[O-] | – | IC50 [2]: 7.5 µM |

| SMILES | inhibition of growth at 25 µM [1] [%] | other results |
| --- | --- | --- |
| O=C(O)COc1no[n+]([O-])c1S(=O)(=O)c1ccccc1 | 35 | – |
| [O-][n+]1onc(-c2ccccc2)c1Br | – | IC50 [2]: 5 µM |
| NC(=O)CSc1no[n+]([O-])c1-c1ccccc1 | 12 | IC50 [3]: > 50 µM; IC50 [4]: > 50 µM; IC50 [5]: > 50 µM; IC50 [6]: > 50 µM |
| CN(C)Cc1no[n+]([O-])c1C#N | 5 | – |
| CCNCCCO[N+](=O)[O-] | 0 | – |
| N#Cc1c(CNC(c2c[nH]cn2)C2CCNCC2)no[n+]1[O-] (stereo not given) | 7 | – |
| Nc1no[n+]([O-])c1-c1ccccc1 | – | IC50 [2]: 25 µM |
| Cc1ncc([N+](=O)[O-])n1CCOc1nonc1S(=O)(=O)c1ccccc1 | – | IC50 [2]: 19 µM |
| [O-][n+]1onc(Br)c1-c1ccccc1 | – | IC50 [2]: 13 µM |
| Cc1nonc1-c1ccc(C(=O)O)cc1 | 32 | – |
| O=S(=O)(c1ccccc1)c1nonc1-c1c[nH]cn1 | 12 | – |
| Cc1c(/C=N/O)no[n+]1[O-] | 32 | – |
| CN(C)CCCOc1nonc1-c1ccccc1 | 0 | – |
| Cc1c(-c2nc(S)n[nH]2)no[n+]1[O-] | 29 | – |
| Cc1nonc1-c1nc(S)n[nH]1 | 32 | – |
| [O-][n+]1onc(SC2CCNCC2)c1-c1ccccc1 | 32 | – |
| CS(=O)(=O)CCOc1no[n+]([O-])c1-c1ccccc1 | 11 | – |
| [O-][n+]1onc(-c2ccccc2)c1SC1CCNCC1 | 35 | – |
